The results in this text go back to ChEMBL document CHEMBL1148544, “Discovery, SAR, and X-ray structure of novel biaryl-based dipeptidyl peptidase IV inhibitors” (Bioorg Med Chem Lett, 2006).

Usually pKi stands for the Ki on a negative log10 scale, so that one unit is a factor of ten. The Papp B→A is the apparent permeability from the basolateral to the apical side of a cell layer. Usually Papp A→B stands for how fast a substance crosses the layer from the apical side. Lower therefore signals poor permeation.

pKi: −log10 of the molar value.

The target in one series is Dipeptidyl peptidase 4 (Homo sapiens, UniProt P27487).
Series [1] can be described thus: Permeability from basolateral to apical side of the Caco-2 cell membrane at 10 uM. The series is classed as ADME, cell-based. As to conditions: human.
The nature of series [2]: Stability in human liver microsomes at 1 uM. The series is classed as ADME, Microsome. Conditions: read-out: Stability. (Microsomes from liver hold many membrane-bound enzymes, among them those of drug oxidation.)
Series [3] can be described thus: Permeability from apical to basolateral side of the Caco-2 cell membrane at 10 uM. The series is classed as ADME, cell-based. As to conditions: human. On the technique in general: Caco-2 monolayers are a common model of the intestinal barrier.

Chain of Dipeptidyl peptidase 4 (P27487 whole entry): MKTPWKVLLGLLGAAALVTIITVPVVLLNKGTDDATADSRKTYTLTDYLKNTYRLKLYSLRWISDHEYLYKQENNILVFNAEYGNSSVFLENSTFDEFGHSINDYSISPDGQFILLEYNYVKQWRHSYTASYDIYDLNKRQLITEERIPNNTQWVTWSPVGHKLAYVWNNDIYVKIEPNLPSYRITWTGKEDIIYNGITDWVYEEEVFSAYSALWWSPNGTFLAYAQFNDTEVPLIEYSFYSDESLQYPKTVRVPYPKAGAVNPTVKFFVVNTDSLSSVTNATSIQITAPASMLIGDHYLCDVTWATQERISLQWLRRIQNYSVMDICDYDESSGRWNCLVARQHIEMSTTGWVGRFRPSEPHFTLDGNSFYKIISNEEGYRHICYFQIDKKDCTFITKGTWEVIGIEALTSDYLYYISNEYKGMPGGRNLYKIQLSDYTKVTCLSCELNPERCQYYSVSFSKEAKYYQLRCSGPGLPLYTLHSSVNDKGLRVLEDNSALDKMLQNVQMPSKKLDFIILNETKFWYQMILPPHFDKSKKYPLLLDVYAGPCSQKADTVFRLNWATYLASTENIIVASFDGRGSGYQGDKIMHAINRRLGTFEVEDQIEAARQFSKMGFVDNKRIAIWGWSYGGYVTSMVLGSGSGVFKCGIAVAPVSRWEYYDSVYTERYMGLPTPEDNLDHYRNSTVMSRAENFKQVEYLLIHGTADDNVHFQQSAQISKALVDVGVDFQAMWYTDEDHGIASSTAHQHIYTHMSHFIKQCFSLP

`N[C@@H](Cc1c[nH]c2ccccc12)C(=O)N1CCSC1`: at Dipeptidyl peptidase 4, the pKi is less than 4.89.

On Dipeptidyl peptidase 4, `N[C@@H](Cc1cccc2ccccc12)C(=O)N1CCSC1` showed a pKi of less than 4.89.

In the case of `N[C@@H](Cc1ccc(-c2ccccc2)cc1)C(=O)N1CCSC1`, in series [1], the Papp B→A at 10 µM is 1.5 ×10⁻⁶ cm/s. Also, the remaining at 1 µM in series [2] is 62%. This compound gave an apparent permeability from apical to basolateral (Papp A→B) at 10 µM in series [3] of 4.56 ×10⁻⁶ cm/s.

Compound `N#C[C@@H]1CCCN1C(=O)[C@@H](N)Cc1ccc(-c2ccc(F)cc2)cc1` came in with a basolateral-to-apical permeability (Papp B→A) at 10 µM in series [1] of 4.45 ×10⁻⁶ cm/s. In series [2], the remaining at 1 µM stood at 6.7%. The same compound had a Papp A→B at 10 µM in series [3] of 7.21 ×10⁻⁶ cm/s.

`N#C[C@@H]1CCCN1C(=O)[C@@H](N)Cc1ccc(-c2ccc(F)cc2F)cc1` registered a Papp B→A at 10 µM in series [1] of 4.93 ×10⁻⁶ cm/s. The remaining at 1 µM in series [2] is 73.9%. This compound came in with a Papp A→B at 10 µM in series [3] of 4.93 ×10⁻⁶ cm/s.

In series [1], `N#C[C@@H]1CCCN1C(=O)[C@@H](N)Cc1ccc(-c2ccccc2)cc1` displayed a basolateral-to-apical permeability (Papp B→A) at 10 µM of 3.82 ×10⁻⁶ cm/s. Also, the remaining at 1 µM in series [2] was 52.3%. This compound showed a Papp A→B at 10 µM in series [3] of 2.66 ×10⁻⁶ cm/s.

`N[C@@H](Cc1ccc(-c2ccccc2)cc1)C(=O)N1CCC[C@H]1CO` showed a pKi at Dipeptidyl peptidase 4 of less than 4.89.

For the compound `N[C@@H](Cc1ccc(-c2ccc(F)cc2)cc1)C(=O)N1CCSC1`, the Papp B→A at 10 µM in series [1] is 5.61 ×10⁻⁶ cm/s. The remaining at 1 µM in series [2] was determined as 78.5%. In series [3], the Papp A→B at 10 µM came to 16.8 ×10⁻⁶ cm/s.

The compound `CC1(C)OCCN1C(=O)[C@@H](N)Cc1ccc(-c2ccccc2)cc1` had a pKi on Dipeptidyl peptidase 4 of less than 4.89.

Compound `N[C@@H](Cc1ccc(-c2ccccc2)cc1)C(=O)N1CCC[C@H]1COCc1ccccc1` had a pKi at Dipeptidyl peptidase 4 of less than 4.89.
